Laboratory results: patent publication US10485235B2, “Aryloxypyrimidinyl ethers as herbicides” (FMC Corporation, priority 2015, dated 2019)

What was measured:
Assay type in all cases: in vivo
[1] = test system: barnyardgrass (Echinochloa crus-galli); test: Test A preemergence, barnyardgrass; settings: Preemergence, 0 to 100 scale (0 no effect, 100 complete control)
Method in brief: (§1)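 Ratings run 0–100, where 100 is complete control, and were scored visually against untreated plants about 10 days after treatment under greenhouse conditions. Formulated chemicals were sprayed either onto the soil surface after seeding (preemergence) or onto one- to two-leaf seedlings 2–10 cm high (postemergence).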

kochia (Kochia scoparia) [2] = test: Test A preemergence, kochia; settings: Preemergence, 0 to 100 scale (0 no effect, 100 complete control)
Method in brief: as §1

[3] = test system: ragweed (common ragweed, Ambrosia elatior); test: Test A preemergence, ragweed; settings: Preemergence, 0 to 100 scale (0 no effect, 100 complete control)
Method in brief: as §1

[4] = test system: ryegrass, Italian (Italian ryegrass, Lolium multiflorum); test: Test A preemergence, Italian ryegrass; settings: Preemergence, 0 to 100 scale (0 no effect, 100 complete control)
Method in brief: as §1

[5] = test system: foxtail, giant (giant foxtail, Setaria faberii); test: Test A preemergence, giant foxtail; settings: Preemergence, 0 to 100 scale (0 no effect, 100 complete control)
Method in brief: as §1

[6] = test system: pigweed (Amaranthus retroflexus); test: Test A preemergence, pigweed; settings: Preemergence, 0 to 100 scale (0 no effect, 100 complete control)
Method in brief: as §1

[7] = test system: barnyardgrass (Echinochloa crus-galli); test: Test A postemergence, barnyardgrass
Method in brief: as §1

kochia (Kochia scoparia) [8] = test: Test A postemergence, kochia
Method in brief: as §1

[9] = test system: ragweed (common ragweed, Ambrosia elatior); test: Test A postemergence, ragweed
Method in brief: as §1

[10] = test system: ryegrass, Italian (Italian ryegrass, Lolium multiflorum); test: Test A postemergence, Italian ryegrass
Method in brief: as §1

[11] = test system: foxtail, giant (giant foxtail, Setaria faberii); test: Test A postemergence, giant foxtail
Method in brief: as §1

[12] = test system: pigweed (Amaranthus retroflexus); test: Test A postemergence, pigweed
Method in brief: as §1

[13] = test system: wheat (Triticum aestivum); test: Test A postemergence, wheat
Method in brief: as §1

corn (Zea mays) = test: Test A postemergence, corn
Method in brief: as §1

[14] = test system: blackgrass (Alopecurus myosuroides); test: Test A postemergence, blackgrass
Method in brief: as §1

[15] = test system: galium (catchweed bedstraw, Galium aparine); test: Test A postemergence, galium
Method in brief: as §1

rice (Oryza sativa) = test: Test B flooded paddy test, rice; settings: 250 g ai/ha, Flood; visual rating after 13 to 15 days; scale 0 to 100, 0 is no effect, 100 is complete control
Method in brief: (§2)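 2-leaf plants; flood to 3 cm, dose into water, hold depth; greenhouse 13–15 d; visual score 0–100 vs controls; dash = not tested.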

[16] = test system: sedge, umbrella (small-flower umbrella sedge, Cyperus difformis); test: Test B flooded paddy test, umbrella sedge; settings: 250 g ai/ha, Flood; visual rating after 13 to 15 days; scale 0 to 100, 0 is no effect, 100 is complete control
Method in brief: as §2

[17] = test system: ducksalad (Heteranthera limosa); test: Test B flooded paddy test, ducksalad; settings: 250 g ai/ha, Flood; visual rating after 13 to 15 days; scale 0 to 100, 0 is no effect, 100 is complete control
Method in brief: as §2

[18] = test system: barnyardgrass (Echinochloa crus-galli); test: Test B flooded paddy test, barnyardgrass; settings: 250 g ai/ha, Flood; visual rating after 13 to 15 days; scale 0 to 100, 0 is no effect, 100 is complete control
Method in brief: as §2

[19] = 125 g ai/ha, postemergence, 0 to 100 scale, 0 is no effect, 100 is complete control, approximately 10 days
[20] = Postemergence, 31 g ai/ha, 0 to 100 scale (0 no effect, 100 complete control)

SMILES	Plant response rating, Barnyardgrass ([1]; 31 g ai/ha)	Plant response rating, Barnyardgrass ([1]; 125 g ai/ha)	Plant response rating, Kochia (kochia (Kochia scoparia) [2]; 31 g ai/ha)	Plant response rating, Kochia (kochia (Kochia scoparia) [2]; 125 g ai/ha)	Plant response rating, Ragweed ([3]; 31 g ai/ha)	Plant response rating, Ragweed ([3]; 125 g ai/ha)	Plant response rating, Ryegrass, Italian ([4]; 31 g ai/ha)	Plant response rating, Ryegrass, Italian ([4]; 125 g ai/ha)	Plant response rating, Foxtail, Giant ([5]; 31 g ai/ha)	Plant response rating, Foxtail, Giant ([5]; 125 g ai/ha)	Plant response rating, Pigweed ([6]; 31 g ai/ha)	Plant response rating, Pigweed ([6]; 125 g ai/ha)	Plant response rating, Barnyardgrass [7, 19]	Plant response rating, Barnyardgrass [7, 20]	Plant response rating, Kochia (kochia (Kochia scoparia) [8]; [19])	Plant response rating, Kochia (kochia (Kochia scoparia) [8]; [20])	Plant response rating, Ragweed [9, 19]	Plant response rating, Ragweed [9, 20]	Plant response rating, Ryegrass, Italian [10, 19]	Plant response rating, Ryegrass, Italian [10, 20]	further results
N#Cc1cccc(Oc2ncc(Cl)cn2)c1OCC(=O)C(F)(F)C(F)(F)F [Compound 74]	0	30	0	0	0	0	0	0	0	70	60	80	20	0	20	0	20	20	0	0	Plant response rating, Foxtail, Giant [11, 19]: 40; Plant response rating, Foxtail, Giant [11, 20]: 0; Plant response rating, Pigweed [12, 19]: 70; Plant response rating, Pigweed [12, 20]: 20; Plant response rating, Wheat [13, 19]: 0; Plant response rating, Wheat [13, 20]: 0; Plant response rating, Corn (corn (Zea mays); [19]): 20; Plant response rating, Corn (corn (Zea mays); [20]): 0; Plant response rating, Blackgrass [14, 19]: 0; Plant response rating, Blackgrass [14, 20]: 0; Plant response rating, Galium [15, 19]: 30; Plant response rating, Galium [15, 20]: 0; Plant response rating, Rice (rice (Oryza sativa)): 0; Plant response rating, Sedge, Umbrella [16]: 0; Plant response rating, Ducksalad [17]: 0; Plant response rating, Barnyardgrass [18]: 0
CCC(=O)COc1c(C#N)cccc1Oc1ncc(Cl)cn1 [Compound 75]	0	50	0	60	0	0	0	0	0	40	50	100	0	0	20	10	0	0	0	0	Plant response rating, Foxtail, Giant [11, 19]: 0; Plant response rating, Foxtail, Giant [11, 20]: 0; Plant response rating, Pigweed [12, 19]: 20; Plant response rating, Pigweed [12, 20]: 10; Plant response rating, Wheat [13, 19]: 0; Plant response rating, Wheat [13, 20]: 0; Plant response rating, Corn (corn (Zea mays); [19]): 10; Plant response rating, Corn (corn (Zea mays); [20]): 0; Plant response rating, Blackgrass [14, 19]: 0; Plant response rating, Blackgrass [14, 20]: 0; Plant response rating, Galium [15, 19]: 20; Plant response rating, Galium [15, 20]: 10; Plant response rating, Rice (rice (Oryza sativa)): 0; Plant response rating, Sedge, Umbrella [16]: 0; Plant response rating, Ducksalad [17]: 30; Plant response rating, Barnyardgrass [18]: 0
CCC(=O)COc1c(Br)cccc1Oc1ncc(Cl)cn1 [Compound 76]	20	40	0	0	0	0	0	10	10	70	0	80	20	0	10	0	0	0	0	0	Plant response rating, Foxtail, Giant [11, 19]: 40; Plant response rating, Foxtail, Giant [11, 20]: 10; Plant response rating, Pigweed [12, 19]: 30; Plant response rating, Pigweed [12, 20]: 10; Plant response rating, Wheat [13, 19]: 0; Plant response rating, Wheat [13, 20]: 0; Plant response rating, Corn (corn (Zea mays); [19]): 10; Plant response rating, Corn (corn (Zea mays); [20]): 0; Plant response rating, Blackgrass [14, 19]: 10; Plant response rating, Blackgrass [14, 20]: 0; Plant response rating, Galium [15, 19]: 20; Plant response rating, Galium [15, 20]: 10; Plant response rating, Rice (rice (Oryza sativa)): 10; Plant response rating, Sedge, Umbrella [16]: 70; Plant response rating, Ducksalad [17]: 90; Plant response rating, Barnyardgrass [18]: 10
